Test results taken from patent publication US11912660B2, “S6K1 protein kinase inhibitors as cancer therapeutics” (Xavier University of Louisiana, priority 2020, dated 2024).
Like-named read-outs stand apart in the source and are kept apart here.

What was measured:
Assay in all cases: SelectScreen kinase panel screening
Type in all cases: biochemical
[1] = target: AKT1 (PKB alpha) (Homo sapiens (Human), UniProt P31749)
Excerpt: (§1) The complete list of the kinases given in Table 1 and their details can be found on the ThermoFisher website for Biochemical Kinase assays (thermofisher.com/us/en/home/industrial/pharma-biopharma/drug-discovery-development/target-and-lead-identification-and-validation/kinasebiology.html).

[2] = target: AURKA (Aurora A) (Homo sapiens (Human), UniProt O14965)
Excerpt: as §1

[3] = target: BTK (Homo sapiens (Human), UniProt Q06187)
Excerpt: as §1

[4] = target: CDC42 BPB (MRCKB) (Homo sapiens (Human), UniProt Q9Y5S2)
Excerpt: as §1

[5] = target: CDK2/cyclin A (Homo sapiens (Human), UniProt P24941)
Excerpt: as §1

[6] = target: CDK5/p25 (Homo sapiens (Human), UniProt Q00535)
Excerpt: as §1

[7] = target: CHEK2 (CHK2) (Homo sapiens (Human), UniProt O96017)
Excerpt: as §1

[8] = target: CSNK1E (CK1 epsilon) (Homo sapiens (Human), UniProt P49674)
Excerpt: as §1

[9] = target: EGFR (ErbB1) (Homo sapiens (Human), UniProt P00533)
Excerpt: as §1

[10] = target: EPHA2 (Homo sapiens (Human), UniProt P29317)
Excerpt: as §1

[11] = target: EPHB2 (Homo sapiens (Human), UniProt P29323)
Excerpt: as §1

[12] = target: EPHB4 (Homo sapiens (Human), UniProt P54760)
Excerpt: as §1

[13] = target: ERBB4 (HER4) (Homo sapiens (Human), UniProt Q15303)
Excerpt: as §1

[14] = target: FLT3 (Homo sapiens (Human), UniProt P36888)
Excerpt: as §1

[15] = target: HCK (Homo sapiens (Human), UniProt P08631)
Excerpt: as §1

[16] = target: JAK1 (Homo sapiens (Human), UniProt P23458)
Excerpt: as §1

[17] = target: JAK2 JH1 JH2 (Homo sapiens (Human), UniProt O60674)
Excerpt: as §1

[18] = target: JAK3 (Homo sapiens (Human), UniProt P52333)
Excerpt: as §1

[19] = target: MAP2K1 (MEK1) (Homo sapiens (Human), UniProt Q02750)
Excerpt: as §1

[20] = target: MAP4K4 (HGK) (Homo sapiens (Human), UniProt O95819)
Excerpt: as §1

[21] = target: MATK (HYL) (Homo sapiens (Human), UniProt P42679)
Excerpt: as §1

[22] = target: MST4 (Homo sapiens (Human), UniProt Q9P289)
Excerpt: as §1

[23] = target: NTRK1 (TRKA) (Homo sapiens (Human), UniProt P04629)
Excerpt: as §1

[24] = target: PDGFRA (PDGFR alpha) (Homo sapiens (Human), UniProt P16234)
Excerpt: as §1

[25] = target: PIK3CA/PIK3R1 (p110 alpha/p85 alpha) (Homo sapiens (Human), UniProt P42336); conditions: read-out: % Inhibition class
Excerpt: as §1

[26] = target: PIK3CG (p110 gamma) (Homo sapiens (Human), UniProt P48736)
Excerpt: as §1

[27] = target: ROS1 (Homo sapiens (Human), UniProt P08922)
Excerpt: as §1

[28] = target: SRC (Homo sapiens (Human), UniProt P12931)
Excerpt: as §1

[29] = target: SYK (Homo sapiens (Human), UniProt P43405)
Excerpt: as §1

[30] = target: TBK1 (Homo sapiens (Human), UniProt Q9UHD2)
Excerpt: as §1

[31] = target: TYRO3 (RSE) (Homo sapiens (Human), UniProt Q06418)
Excerpt: as §1

[32] = target: YES1 (Homo sapiens (Human), UniProt P07947)
Excerpt: as §1

Chain of PIK3CG (p110 gamma) (P48736 whole entry): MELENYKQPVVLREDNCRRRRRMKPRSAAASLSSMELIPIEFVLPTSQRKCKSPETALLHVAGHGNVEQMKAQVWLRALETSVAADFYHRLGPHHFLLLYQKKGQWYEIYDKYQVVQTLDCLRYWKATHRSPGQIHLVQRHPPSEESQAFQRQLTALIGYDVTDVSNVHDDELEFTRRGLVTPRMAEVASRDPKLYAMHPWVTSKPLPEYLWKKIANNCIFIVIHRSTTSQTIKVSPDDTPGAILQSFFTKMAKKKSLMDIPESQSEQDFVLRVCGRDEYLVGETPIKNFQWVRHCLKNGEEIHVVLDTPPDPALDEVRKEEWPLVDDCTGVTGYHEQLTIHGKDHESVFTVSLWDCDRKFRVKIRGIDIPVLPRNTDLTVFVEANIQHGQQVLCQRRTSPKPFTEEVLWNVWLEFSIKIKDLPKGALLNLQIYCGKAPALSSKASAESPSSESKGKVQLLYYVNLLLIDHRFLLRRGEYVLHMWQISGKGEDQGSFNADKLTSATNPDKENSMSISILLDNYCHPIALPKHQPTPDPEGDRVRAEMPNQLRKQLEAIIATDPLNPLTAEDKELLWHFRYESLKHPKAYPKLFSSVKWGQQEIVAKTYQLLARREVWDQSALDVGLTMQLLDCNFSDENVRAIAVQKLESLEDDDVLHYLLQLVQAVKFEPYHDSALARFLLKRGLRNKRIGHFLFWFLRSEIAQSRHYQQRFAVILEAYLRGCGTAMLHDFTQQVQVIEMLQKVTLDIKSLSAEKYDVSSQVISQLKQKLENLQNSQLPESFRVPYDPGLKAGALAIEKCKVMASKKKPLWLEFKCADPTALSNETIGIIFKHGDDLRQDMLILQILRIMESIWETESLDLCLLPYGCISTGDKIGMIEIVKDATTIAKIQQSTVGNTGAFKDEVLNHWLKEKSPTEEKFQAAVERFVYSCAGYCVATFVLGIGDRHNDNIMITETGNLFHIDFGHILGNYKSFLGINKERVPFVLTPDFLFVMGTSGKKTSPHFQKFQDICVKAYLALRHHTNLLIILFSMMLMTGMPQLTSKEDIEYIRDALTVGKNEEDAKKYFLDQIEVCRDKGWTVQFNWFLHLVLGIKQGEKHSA
Chain of EGFR (ErbB1) (P00533 25-1210): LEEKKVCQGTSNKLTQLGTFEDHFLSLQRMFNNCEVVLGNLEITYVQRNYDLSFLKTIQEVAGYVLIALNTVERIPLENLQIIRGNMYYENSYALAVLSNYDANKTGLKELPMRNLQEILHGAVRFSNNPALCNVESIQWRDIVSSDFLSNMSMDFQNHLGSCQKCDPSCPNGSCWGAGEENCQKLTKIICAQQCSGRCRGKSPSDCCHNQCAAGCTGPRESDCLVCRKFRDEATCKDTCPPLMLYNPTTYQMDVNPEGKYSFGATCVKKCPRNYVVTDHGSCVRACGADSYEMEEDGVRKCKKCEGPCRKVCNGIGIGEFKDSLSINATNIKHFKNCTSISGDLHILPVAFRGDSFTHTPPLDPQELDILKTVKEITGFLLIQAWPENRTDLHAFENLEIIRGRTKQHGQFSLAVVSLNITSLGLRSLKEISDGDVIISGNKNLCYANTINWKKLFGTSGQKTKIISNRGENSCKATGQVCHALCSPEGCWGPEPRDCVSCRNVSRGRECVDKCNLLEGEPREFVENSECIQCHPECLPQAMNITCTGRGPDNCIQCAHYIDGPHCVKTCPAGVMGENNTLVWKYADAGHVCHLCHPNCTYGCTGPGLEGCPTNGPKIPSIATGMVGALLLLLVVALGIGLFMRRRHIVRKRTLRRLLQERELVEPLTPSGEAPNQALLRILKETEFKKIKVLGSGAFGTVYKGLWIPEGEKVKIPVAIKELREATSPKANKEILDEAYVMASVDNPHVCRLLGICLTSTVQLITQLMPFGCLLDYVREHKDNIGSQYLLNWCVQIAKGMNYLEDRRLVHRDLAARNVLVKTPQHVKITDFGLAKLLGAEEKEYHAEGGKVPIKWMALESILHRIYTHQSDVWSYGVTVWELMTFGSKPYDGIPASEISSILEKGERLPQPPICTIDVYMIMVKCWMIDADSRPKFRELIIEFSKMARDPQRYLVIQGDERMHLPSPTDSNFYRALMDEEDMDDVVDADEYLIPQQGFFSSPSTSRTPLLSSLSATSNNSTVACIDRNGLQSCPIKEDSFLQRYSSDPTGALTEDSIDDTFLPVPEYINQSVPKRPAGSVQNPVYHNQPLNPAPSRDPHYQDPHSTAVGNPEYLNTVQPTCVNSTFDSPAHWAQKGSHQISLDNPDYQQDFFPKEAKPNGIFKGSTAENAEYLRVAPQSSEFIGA
Chain of YES1 (P07947 whole entry): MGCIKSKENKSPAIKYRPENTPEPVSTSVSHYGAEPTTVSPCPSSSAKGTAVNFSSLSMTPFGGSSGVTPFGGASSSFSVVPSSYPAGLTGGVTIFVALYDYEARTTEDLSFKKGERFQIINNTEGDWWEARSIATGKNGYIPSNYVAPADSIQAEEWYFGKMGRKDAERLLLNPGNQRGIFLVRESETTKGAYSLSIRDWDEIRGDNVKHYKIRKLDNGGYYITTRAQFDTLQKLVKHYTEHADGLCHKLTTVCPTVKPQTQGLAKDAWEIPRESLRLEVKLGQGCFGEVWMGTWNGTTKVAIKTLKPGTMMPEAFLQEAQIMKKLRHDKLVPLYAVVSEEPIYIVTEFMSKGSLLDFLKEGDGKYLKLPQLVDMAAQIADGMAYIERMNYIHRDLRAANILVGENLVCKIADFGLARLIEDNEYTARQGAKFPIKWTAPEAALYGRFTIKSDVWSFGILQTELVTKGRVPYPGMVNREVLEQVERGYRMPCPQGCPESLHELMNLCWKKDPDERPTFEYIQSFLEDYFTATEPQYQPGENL
Chain of SRC (P12931 whole entry, looked up): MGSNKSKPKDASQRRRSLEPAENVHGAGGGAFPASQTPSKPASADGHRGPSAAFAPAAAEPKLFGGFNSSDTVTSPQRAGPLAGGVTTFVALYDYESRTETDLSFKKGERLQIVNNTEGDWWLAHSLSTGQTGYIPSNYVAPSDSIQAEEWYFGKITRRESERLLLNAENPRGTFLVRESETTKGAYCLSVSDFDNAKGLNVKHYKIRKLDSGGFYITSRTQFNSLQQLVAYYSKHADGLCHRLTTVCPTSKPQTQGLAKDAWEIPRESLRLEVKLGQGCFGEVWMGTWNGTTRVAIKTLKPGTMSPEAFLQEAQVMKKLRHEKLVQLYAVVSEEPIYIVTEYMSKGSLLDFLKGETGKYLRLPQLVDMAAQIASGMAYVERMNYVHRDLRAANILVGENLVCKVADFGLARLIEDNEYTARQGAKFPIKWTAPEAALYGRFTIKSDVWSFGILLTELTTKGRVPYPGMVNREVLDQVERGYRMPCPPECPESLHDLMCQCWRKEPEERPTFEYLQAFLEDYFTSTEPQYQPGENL
Chain of EPHB2 (P29323 19-1055): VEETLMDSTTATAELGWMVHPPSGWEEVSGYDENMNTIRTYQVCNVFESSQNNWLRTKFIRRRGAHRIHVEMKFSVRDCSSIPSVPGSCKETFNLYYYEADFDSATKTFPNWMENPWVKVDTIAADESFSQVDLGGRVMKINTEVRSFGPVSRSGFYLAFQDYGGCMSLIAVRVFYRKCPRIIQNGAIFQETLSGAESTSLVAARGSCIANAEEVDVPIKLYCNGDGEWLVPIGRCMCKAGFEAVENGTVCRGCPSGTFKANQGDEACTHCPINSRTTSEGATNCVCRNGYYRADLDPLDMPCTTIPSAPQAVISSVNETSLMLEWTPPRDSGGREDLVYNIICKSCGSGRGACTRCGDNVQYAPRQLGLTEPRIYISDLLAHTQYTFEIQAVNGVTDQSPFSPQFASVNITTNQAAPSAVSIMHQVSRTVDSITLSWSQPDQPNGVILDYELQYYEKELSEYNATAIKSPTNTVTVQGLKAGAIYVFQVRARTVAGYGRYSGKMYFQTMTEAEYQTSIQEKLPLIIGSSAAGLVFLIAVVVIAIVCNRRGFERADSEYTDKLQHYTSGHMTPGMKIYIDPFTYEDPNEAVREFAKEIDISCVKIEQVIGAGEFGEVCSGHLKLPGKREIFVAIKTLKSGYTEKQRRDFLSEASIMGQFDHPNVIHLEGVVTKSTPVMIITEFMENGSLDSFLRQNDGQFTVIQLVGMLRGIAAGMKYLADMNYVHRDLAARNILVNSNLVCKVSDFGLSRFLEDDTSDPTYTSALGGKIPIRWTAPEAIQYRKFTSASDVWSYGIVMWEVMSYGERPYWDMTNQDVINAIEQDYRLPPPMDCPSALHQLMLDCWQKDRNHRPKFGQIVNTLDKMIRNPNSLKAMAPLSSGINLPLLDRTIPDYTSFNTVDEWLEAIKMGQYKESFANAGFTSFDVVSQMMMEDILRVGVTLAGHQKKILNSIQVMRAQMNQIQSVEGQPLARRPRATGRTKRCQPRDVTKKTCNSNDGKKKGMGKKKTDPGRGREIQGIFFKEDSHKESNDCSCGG
Chain of MATK (HYL) (P42679 whole entry): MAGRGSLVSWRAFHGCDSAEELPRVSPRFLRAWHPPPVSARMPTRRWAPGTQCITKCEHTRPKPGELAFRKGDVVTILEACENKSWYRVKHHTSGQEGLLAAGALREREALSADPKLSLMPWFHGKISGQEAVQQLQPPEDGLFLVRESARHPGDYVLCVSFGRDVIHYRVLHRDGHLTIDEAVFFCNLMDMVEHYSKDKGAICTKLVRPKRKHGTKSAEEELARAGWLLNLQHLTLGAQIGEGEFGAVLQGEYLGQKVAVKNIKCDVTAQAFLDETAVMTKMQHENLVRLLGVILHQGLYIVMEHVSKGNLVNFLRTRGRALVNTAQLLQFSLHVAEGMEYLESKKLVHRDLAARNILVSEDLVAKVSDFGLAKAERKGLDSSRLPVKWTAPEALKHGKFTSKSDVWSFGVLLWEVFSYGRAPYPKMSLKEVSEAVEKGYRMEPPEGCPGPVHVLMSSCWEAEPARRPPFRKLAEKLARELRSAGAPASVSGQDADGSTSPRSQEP

inhibition at 10 µM ([1]; read-out: % Inhibition): 11%
inhibition at 10 µM ([1]; read-out: % Inhibition class): < 40%
inhibition at 10 µM ([2]; read-out: % Inhibition): 43%
inhibition at 10 µM ([2]; read-out: % Inhibition class): 40 to 80%
inhibition at 10 µM ([3]; read-out: % Inhibition): 43%
inhibition at 10 µM ([3]; read-out: % Inhibition class): 40 to 80%
inhibition at 10 µM ([4]; read-out: % Inhibition): 0%
inhibition at 10 µM ([4]; read-out: % Inhibition class): < 40%
inhibition at 10 µM ([5]; read-out: % Inhibition): 9%
inhibition at 10 µM ([5]; read-out: % Inhibition class): < 40%
inhibition at 10 µM ([6]; read-out: % Inhibition): 27%
inhibition at 10 µM ([6]; read-out: % Inhibition class): < 40%
inhibition at 10 µM ([7]; read-out: % Inhibition): 38%
inhibition at 10 µM ([7]; read-out: % Inhibition class): < 40%
inhibition at 10 µM ([8]; read-out: % Inhibition): 33%
inhibition at 10 µM ([8]; read-out: % Inhibition class): < 40%
inhibition at 10 µM ([9]; read-out: % Inhibition): 12%
inhibition at 10 µM ([9]; read-out: % Inhibition class): < 40%
inhibition at 10 µM ([10]; read-out: % Inhibition): 16%
inhibition at 10 µM ([10]; read-out: % Inhibition class): < 40%
inhibition at 10 µM ([11]; read-out: % Inhibition): 10%
inhibition at 10 µM ([11]; read-out: % Inhibition class): < 40%
inhibition at 10 µM ([12]; read-out: % Inhibition): 9%
inhibition at 10 µM ([12]; read-out: % Inhibition class): < 40%
inhibition at 10 µM ([13]; read-out: % Inhibition): 25%
inhibition at 10 µM ([13]; read-out: % Inhibition class): < 40%
inhibition at 10 µM ([14]; read-out: % Inhibition): 29%
inhibition at 10 µM ([14]; read-out: % Inhibition class): < 40%
inhibition at 10 µM ([15]; read-out: % Inhibition): 21%
inhibition at 10 µM ([15]; read-out: % Inhibition class): < 40%
inhibition at 10 µM ([16]; read-out: % Inhibition): 9%
inhibition at 10 µM ([16]; read-out: % Inhibition class): < 40%
inhibition at 10 µM ([17]; read-out: % Inhibition): 15%
inhibition at 10 µM ([17]; read-out: % Inhibition class): < 40%
inhibition at 10 µM ([18]; read-out: % Inhibition): 28%
inhibition at 10 µM ([18]; read-out: % Inhibition class): < 40%
inhibition at 10 µM ([19]; read-out: % Inhibition): 13%
inhibition at 10 µM ([19]; read-out: % Inhibition class): < 40%
inhibition at 10 µM ([20]; read-out: % Inhibition): 66%
inhibition at 10 µM ([20]; read-out: % Inhibition class): 40 to 80%
inhibition at 10 µM ([21]; read-out: % Inhibition): -5%
inhibition at 10 µM ([21]; read-out: % Inhibition class): < 40%
inhibition at 10 µM ([22]; read-out: % Inhibition): 52%
inhibition at 10 µM ([22]; read-out: % Inhibition class): 40 to 80%
inhibition at 10 µM ([23]; read-out: % Inhibition): 5%
inhibition at 10 µM ([23]; read-out: % Inhibition class): < 40%
inhibition at 10 µM ([24]; read-out: % Inhibition): 13%
inhibition at 10 µM ([24]; read-out: % Inhibition class): < 40%
inhibition at 10 µM [25]: < 40%
% Inhibition ([26]; 10 μM): 11%
inhibition at 10 µM ([26]; read-out: % Inhibition): 12%
inhibition at 10 µM ([26]; read-out: % Inhibition class): < 40%
inhibition at 10 µM ([27]; read-out: % Inhibition): 3%
inhibition at 10 µM ([27]; read-out: % Inhibition class): < 40%
inhibition at 10 µM ([28]; read-out: % Inhibition): 9%
inhibition at 10 µM ([28]; read-out: % Inhibition class): < 40%
inhibition at 10 µM ([29]; read-out: % Inhibition): 39%
inhibition at 10 µM ([29]; read-out: % Inhibition class): < 40%
inhibition at 10 µM ([30]; read-out: % Inhibition): 18%
inhibition at 10 µM ([30]; read-out: % Inhibition class): < 40%
inhibition at 10 µM ([31]; read-out: % Inhibition): 25%
inhibition at 10 µM ([31]; read-out: % Inhibition class): < 40%
inhibition at 10 µM ([32]; read-out: % Inhibition): 24%
inhibition at 10 µM ([32]; read-out: % Inhibition class): < 40%
Compound: Nc1cc(N)c2c(c1)C(=O)NC2=O [RJ1, 4,6-diaminoisoindoline-1,3-dione]
